Assay: Visual inspection of [68Ga]PSMA-11 solution (acceptance: colourless to slightly yellow solution, free from visible particles)
Assay type: physicochemical
Parameters: key: C = Conforms to specifications
Experimental: Table 1 to Table 5 show the results of various radiolabelling experiments on radiochemical purity and the chelation yield. The radiolabelling experiments in the tables are carried out as described in: • Example 1 for when the gallium-68 source is GE Liquid target generator and EZAG GalliaPharm generator; • Example 2 for when the gallium-68 source is IRE Galli Eo generator; • Example 3 for when the gallium-68 source is GE solid target generator;
However, the experiments were carried out with the amount of ascorbic acid as indicated in the Tables 1 to 5, and the activity as indicated in the Tables 1 to 5. Radiochemical purities were measured at various times (T0, T1, T4, T6) after the radiolabelled experiments have been conducted.
The kits of Example 1, Example 2 or Example 3, with amounts of ascorbic acid as set out in Table 7 were used in the experiments for the ascorbic acid bracketing matrix. Three strengths of [^68Ga]Ga-PSMA-11 will be tested, i.e. 50 mCi/ml, 7 mCi/ml and 1 mCi/ml. Radiochemical purity was determined at different time points (TO, T1, T4 or T6), as set out in Table 7.

Measured: Visual Inspection

O=C([O-])CN(CCN(CC(=O)[O-])Cc1cc(CCC(=O)NCCCCCC(=O)NCCCC[C@H](NC(=O)N[C@@H](CCC(=O)O)C(=O)O)C(=O)O)ccc1[O-])Cc1cc(CCC(=O)O)ccc1[O-].[68Ga+3].[OH3+] [[^68Ga]PSMA-11, gallium-68 radiolabelled Glu-urea-Lys-HBED-CC (gozetotide or PSMA-11)]
C: bracketing ~1 mCi/mL, 18.75 mg ascorbic acid, 8.9-11.5 mCi, 0.85-1.09 mCi/mL, IRE Galli Eo, n=2, T0 | bracketing ~1 mCi/mL, 18.75 mg ascorbic acid, 8.9-11.5 mCi, 0.85-1.09 mCi/mL, IRE Galli Eo, n=2, T1 (1 h) | bracketing ~1 mCi/mL, 25 mg ascorbic acid, 8.8-12.7 mCi, 0.84-1.21 mCi/mL, 2 × IRE Galli Eo, n=2, T0 | bracketing ~1 mCi/mL, 25 mg ascorbic acid, 8.8-12.7 mCi, 0.84-1.21 mCi/mL, 2 × IRE Galli Eo, n=2, T1 (1 h) | bracketing ~1 mCi/mL, 31.25 mg ascorbic acid, 15.2-26.9 mCi, 1.44-2.54 mCi/mL, EZAG GalliaPharm, n=2, T0 | bracketing ~1 mCi/mL, 31.25 mg ascorbic acid, 15.2-26.9 mCi, 1.44-2.54 mCi/mL, EZAG GalliaPharm, n=2, T1 (1 h) | bracketing ~7 mCi/mL, 18.75 mg ascorbic acid, 51.0-58.0 mCi, 5.55-6.5 mCi/mL, IRE Galli Eo, n=2, T0 | bracketing ~7 mCi/mL, 18.75 mg ascorbic acid, 51.0-58.0 mCi, 5.55-6.5 mCi/mL, IRE Galli Eo, n=2, T4 (4 h) | bracketing ~7 mCi/mL, 25 mg ascorbic acid, 51.6-74.4 mCi, 4.56-6.92 mCi/mL, 3 × GE Liquid Target, 3 × IRE Galli Eo, 3 × EZAG GalliaPharm, n=9, T0 | bracketing ~7 mCi/mL, 25 mg ascorbic acid, 51.6-74.4 mCi, 4.56-6.92 mCi/mL, 3 × GE Liquid Target, 3 × IRE Galli Eo, 3 × EZAG GalliaPharm, n=9, T4 (4 h) | bracketing ~7 mCi/mL, 31.25 mg ascorbic acid, 61.5-62.0 mCi, 5.85-5.88 mCi/mL, EZAG GalliaPharm, n=2, T0 | bracketing ~7 mCi/mL, 31.25 mg ascorbic acid, 61.5-62.0 mCi, 5.85-5.88 mCi/mL, EZAG GalliaPharm, n=2, T4 (4 h) | bracketing ~50 mCi/mL, 20 mg ascorbic acid, 514-544 mCi, 48.3-51.9 mCi/mL, GE Solid Target, n=2, T0 | bracketing ~50 mCi/mL, 20 mg ascorbic acid, 514-544 mCi, 48.3-51.9 mCi/mL, GE Solid Target, n=2, T6 (6 h) | bracketing ~50 mCi/mL, 25 mg ascorbic acid, 537-551 mCi, 50.2-51.6 mCi/mL, GE Solid Target, n=3, T0 | bracketing ~50 mCi/mL, 25 mg ascorbic acid, 537-551 mCi, 50.2-51.6 mCi/mL, GE Solid Target, n=3, T6 (6 h) | bracketing ~50 mCi/mL, 31.25 mg ascorbic acid, 500-544 mCi, 48.1-51.7 mCi/mL, GE Solid Target, n=2, T0 | bracketing ~50 mCi/mL, 31.25 mg ascorbic acid, 500-544 mCi, 48.1-51.7 mCi/mL, GE Solid Target, n=2, T6 (6 h)

Source: patent US20250360235A1, “RADI[…] AND METHOD FOR RADIOLABELLING” (Telix Innovations SA, priority 2024, published 2025)
